Data: publication PMC6507131, “Evaluation of the novel liver micronucleus assay using formalin-fixed tissues” (Genes and Environment, 2019)
“Also recorded” adds a separate entry of the source. Structures can show the parent of a compound that is named as a salt.

What was measured:
[1] = tested on: liver; conditions: in vivo; cited from earlier work
[2] = tested on: hepatocytes of formalin-fixed liver tissues; conditions: rat, in vivo; for RDLMN test result (liver micronucleus induction), formalin-fixed method: po
[3] = tested on: hepatocytes (liver); conditions: rat, in vivo, cited from earlier work; for RDLMN test result (liver micronucleus induction), collagenase digestion method: po
[4] = tested on: hepatocytes (liver); assay: Repeated-dose liver micronucleus (RDLMN) assay, collagenase digestion method; assay type: in vivo, rat; conditions: comparison between the two methods
[5] = parameters: method as in PMID 15979392; conditions: cited from earlier work
[6] = tested on: bone marrow; parameters: method as in PMID 9707102; conditions: cited from earlier work
[7] = tested on: liver; parameters: method as in PMID 25892619, PMID 25892626; conditions: previous study; cited from earlier work

## CCOC(=O)C(C)(C)Oc1ccc(Cl)cc1 [CFB, Clofibrate]
[1]
  Hepatocarcinogen / non-hepatocarcinogen classification: Hepatocarcinogen

## CN(C)N=O [DMN, Dimethylnitrosoamine]
[2]
  Frequency of MNHEPs by the formalin-fixed method compared with the collagenase digestion method: Relatively higher frequencies of MNHEPs
  RDLMN test result (liver micronucleus induction), formalin-fixed method: positive
[3]
  RDLMN test result (liver micronucleus induction), collagenase digestion method: positive
[1]
  Hepatocarcinogen / non-hepatocarcinogen classification: Hepatocarcinogen

## C[C@H]1C(=O)O[C@@H]2CCN3CC=C(COC(=O)[C@](C)(O)[C@]1(C)O)[C@H]23 [MCT, Monocrotaline]
[2]
  RDLMN test result (liver micronucleus induction), formalin-fixed method: positive
[3]
  RDLMN test result (liver micronucleus induction), collagenase digestion method: positive
[1]
  Hepatocarcinogen / non-hepatocarcinogen classification: Hepatocarcinogen

## O.O=P1(N(CCCl)CCCl)NCCCO1 (stereo not shown) [CP, Cyclophosphamide H2O]
[2]
  RDLMN test result (liver micronucleus induction), formalin-fixed method: negative
[3]
  RDLMN test result (liver micronucleus induction), collagenase digestion method: negative
[1]
  Hepatocarcinogen / non-hepatocarcinogen classification: Non-hepatocarcinogen

## CC(=O)Nc1ccc2c(c1)Cc1ccccc1-2 [2-AAF, 2-Acetylaminofluorene]
[2]
  RDLMN test result (liver micronucleus induction), formalin-fixed method: positive
[3]
  RDLMN test result (liver micronucleus induction), collagenase digestion method: positive
[1]
  Hepatocarcinogen / non-hepatocarcinogen classification: Hepatocarcinogen

## c1ccc2ncccc2c1 [QUN, Quinoline]
[2]
  RDLMN test result (liver micronucleus induction), formalin-fixed method: positive
[3]
  RDLMN test result (liver micronucleus induction), collagenase digestion method: positive

## COS(C)(=O)=O [MMS, Methyl methanesulfonate]
[2]
  RDLMN test result (liver micronucleus induction), formalin-fixed method: positive
[3]
  RDLMN test result (liver micronucleus induction), collagenase digestion method: positive
[1]
  Hepatocarcinogen / non-hepatocarcinogen classification: Non-hepatocarcinogen

## CN(C)c1ccc(N=Nc2ccccc2)cc1 [DAB, p-Dimethylaminoazobenzene]
[2]
  RDLMN test result (liver micronucleus induction), formalin-fixed method: positive
[3]
  RDLMN test result (liver micronucleus induction), collagenase digestion method: positive
[1]
  Hepatocarcinogen / non-hepatocarcinogen classification: Hepatocarcinogen

## O=NN1CCCC1 [NPYR, N-Nitrosopyrrolidine]
[4]
  Micronucleus induction by the collagenase digestion method compared with the formalin-fixed method: the same trend; also recorded: higher micronucleus induction
[1]
  Hepatocarcinogen / non-hepatocarcinogen classification: Hepatocarcinogen

## CN(C)CCN(Cc1cccs1)c1ccccn1 [MP, Methapyrilene HCl]
[1]
  Hepatocarcinogen / non-hepatocarcinogen classification: Hepatocarcinogen

## CCCN(CCC)N=O [NDPA, N-Nitrosodipropylamine]
[2]
  Frequency of MNHEPs by the formalin-fixed method compared with the collagenase digestion method: Relatively higher frequencies of MNHEPs
  RDLMN test result (liver micronucleus induction), formalin-fixed method: positive
[3]
  RDLMN test result (liver micronucleus induction), collagenase digestion method: positive
[1]
  Hepatocarcinogen / non-hepatocarcinogen classification: Hepatocarcinogen

## CC(=N)S [TAA, Thioacetamide]
[2]
  Frequency of MNHEPs by the formalin-fixed method compared with the collagenase digestion method: comparable
  RDLMN test result (liver micronucleus induction), formalin-fixed method: positive
[3]
  RDLMN test result (liver micronucleus induction), collagenase digestion method: negative
[1]
  Hepatocarcinogen / non-hepatocarcinogen classification: Hepatocarcinogen

## O=NN1CCOCC1 [NMOR, N-Nitrosomorpholine]
[2]
  RDLMN test result (liver micronucleus induction), formalin-fixed method: positive
[3]
  RDLMN test result (liver micronucleus induction), collagenase digestion method: positive
[1]
  Hepatocarcinogen / non-hepatocarcinogen classification: Hepatocarcinogen

## CC(C)[N+](=O)[O-] [2-NP, 2-Nitropropane]
[2]
  RDLMN test result (liver micronucleus induction), formalin-fixed method: positive
[3]
  RDLMN test result (liver micronucleus induction), collagenase digestion method: positive

## Oc1ccc2ccccc2c1N=Nc1ccccc1 [Sudan I, Sudan I (C.I.solvent yellow 14)]
[2]
  RDLMN test result (liver micronucleus induction), formalin-fixed method: positive
[5]
  in vitro chromosome aberration test result: negative
[6]
  short-term bone marrow micronucleus assay result: positive
[7]
  Histopathological finding in the liver: remarkable HEP hypertrophy
[3]
  RDLMN test result (liver micronucleus induction), collagenase digestion method: negative
  Dose dependence of liver micronucleus induction, collagenase digestion method: a tendency, though slight, toward a dose-dependent increase
[1]
  Hepatocarcinogen / non-hepatocarcinogen classification: Hepatocarcinogen
  liver carcinogenicity: positive
